Measured values taken from ChEMBL document CHEMBL5465560, “Selectivity Literature for EUbOPEN Chemogenomic Library” (2024).
Values belong to the compound of their own block, whether it stands above or below them.

Assays:
[1] = molecular target: Tyrosine-protein kinase Fyn (Homo sapiens) (UniProt P06241); experiment: Selectivity interaction (LanthaScreen Eu Kinase Binding Assay) EUB0001632a FYN; settings: at 10 µM
[2] = molecular target: Mitogen-activated protein kinase 7 (Homo sapiens) (UniProt Q13164); experiment: Selectivity interaction (Rxn Biology Kinase assay) EUB0001632a MAPK7; settings: at 10 µM
[3] = molecular target: MAP/microtubule affinity-regulating kinase 3 (Homo sapiens) (UniProt P27448); experiment: Selectivity interaction (Kinase panel (Z-LYTE Assay)) EUB0001632a MARK3; settings: at 10 µM
Sequence of MAP/microtubule affinity-regulating kinase 3 (Homo sapiens) (P27448 whole entry, looked up): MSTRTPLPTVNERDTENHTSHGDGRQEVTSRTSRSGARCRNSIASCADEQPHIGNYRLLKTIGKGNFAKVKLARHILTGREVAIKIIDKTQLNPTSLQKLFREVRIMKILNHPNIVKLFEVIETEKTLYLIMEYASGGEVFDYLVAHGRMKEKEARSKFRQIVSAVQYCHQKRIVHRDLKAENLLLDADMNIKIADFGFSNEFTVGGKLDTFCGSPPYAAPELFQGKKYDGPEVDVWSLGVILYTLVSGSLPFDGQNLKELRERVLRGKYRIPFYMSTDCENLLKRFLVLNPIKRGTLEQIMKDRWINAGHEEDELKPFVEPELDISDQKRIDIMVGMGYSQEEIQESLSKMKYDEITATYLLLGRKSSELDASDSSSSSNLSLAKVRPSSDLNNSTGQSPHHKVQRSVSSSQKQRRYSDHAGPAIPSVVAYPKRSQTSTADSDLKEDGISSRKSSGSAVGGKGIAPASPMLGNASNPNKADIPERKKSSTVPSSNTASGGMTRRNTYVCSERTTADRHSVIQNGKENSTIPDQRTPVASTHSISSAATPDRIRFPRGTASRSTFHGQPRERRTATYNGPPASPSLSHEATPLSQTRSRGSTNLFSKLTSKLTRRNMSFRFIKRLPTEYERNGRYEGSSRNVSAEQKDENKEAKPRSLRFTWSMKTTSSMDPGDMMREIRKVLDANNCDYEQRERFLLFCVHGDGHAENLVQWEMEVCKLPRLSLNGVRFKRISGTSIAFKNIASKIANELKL

[4] = molecular target: Serine/threonine-protein kinase Nek6 (Homo sapiens) (UniProt Q9HC98); experiment: Selectivity interaction (KinomeScan (DiscoverX)) EUB0000666a NEK6; settings: at 10 µM
[5] = molecular target: Cannabinoid receptor 2 (Homo sapiens) (UniProt P34972); experiment: Selectivity interaction (Panel of kinases, GPCRs, ion channels and transporters (enzymatic assay)) EUB0000266bCl CNR2
[6] = molecular target: MAP/microtubule affinity-regulating kinase 3 (Homo sapiens) (UniProt P27448); experiment: (§1) Selectivity interaction (ActivX KiNativ screen (kinase selectivity in THP-1 cell lysates)) EUB0000639a MARK3; assay type: subcellular; settings: lysate, at 5 µM
[7] = molecular target: MAP/microtubule affinity-regulating kinase 3 (Homo sapiens) (UniProt P27448); experiment: as §1; assay type: subcellular; settings: lysate, at 0.04 µM
[8] = molecular target: T1, Serine/threonine-protein kinase ULK3 (Homo sapiens) (UniProt Q6PHR2); experiment: Selectivity interaction (ActivX KiNativ screen (kinase selectivity in THP-1 cell lysates)) EUB0000639a ULK3; assay type: subcellular; settings: lysate, at 0.2 µM
T1 sequence (whole entry): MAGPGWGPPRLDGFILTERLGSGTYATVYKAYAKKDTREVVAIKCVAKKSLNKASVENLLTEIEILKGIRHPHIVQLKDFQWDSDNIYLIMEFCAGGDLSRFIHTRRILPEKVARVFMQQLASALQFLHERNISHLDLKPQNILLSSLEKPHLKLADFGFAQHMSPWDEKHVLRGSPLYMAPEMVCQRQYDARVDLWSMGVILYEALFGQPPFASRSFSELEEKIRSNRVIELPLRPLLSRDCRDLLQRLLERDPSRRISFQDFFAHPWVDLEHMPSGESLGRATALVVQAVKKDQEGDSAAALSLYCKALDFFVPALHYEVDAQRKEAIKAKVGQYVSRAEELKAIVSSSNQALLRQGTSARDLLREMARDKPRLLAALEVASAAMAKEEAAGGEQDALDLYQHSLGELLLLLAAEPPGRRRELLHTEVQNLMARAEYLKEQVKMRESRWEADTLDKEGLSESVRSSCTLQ

[9] = molecular target: Serine/threonine-protein kinase 10 (Homo sapiens) (UniProt O94804); experiment: Selectivity interaction (Kinase panel (DSF assay)) EUB0001489b STK10
Sequence of Serine/threonine-protein kinase 10 (Homo sapiens) (O94804 whole entry, looked up): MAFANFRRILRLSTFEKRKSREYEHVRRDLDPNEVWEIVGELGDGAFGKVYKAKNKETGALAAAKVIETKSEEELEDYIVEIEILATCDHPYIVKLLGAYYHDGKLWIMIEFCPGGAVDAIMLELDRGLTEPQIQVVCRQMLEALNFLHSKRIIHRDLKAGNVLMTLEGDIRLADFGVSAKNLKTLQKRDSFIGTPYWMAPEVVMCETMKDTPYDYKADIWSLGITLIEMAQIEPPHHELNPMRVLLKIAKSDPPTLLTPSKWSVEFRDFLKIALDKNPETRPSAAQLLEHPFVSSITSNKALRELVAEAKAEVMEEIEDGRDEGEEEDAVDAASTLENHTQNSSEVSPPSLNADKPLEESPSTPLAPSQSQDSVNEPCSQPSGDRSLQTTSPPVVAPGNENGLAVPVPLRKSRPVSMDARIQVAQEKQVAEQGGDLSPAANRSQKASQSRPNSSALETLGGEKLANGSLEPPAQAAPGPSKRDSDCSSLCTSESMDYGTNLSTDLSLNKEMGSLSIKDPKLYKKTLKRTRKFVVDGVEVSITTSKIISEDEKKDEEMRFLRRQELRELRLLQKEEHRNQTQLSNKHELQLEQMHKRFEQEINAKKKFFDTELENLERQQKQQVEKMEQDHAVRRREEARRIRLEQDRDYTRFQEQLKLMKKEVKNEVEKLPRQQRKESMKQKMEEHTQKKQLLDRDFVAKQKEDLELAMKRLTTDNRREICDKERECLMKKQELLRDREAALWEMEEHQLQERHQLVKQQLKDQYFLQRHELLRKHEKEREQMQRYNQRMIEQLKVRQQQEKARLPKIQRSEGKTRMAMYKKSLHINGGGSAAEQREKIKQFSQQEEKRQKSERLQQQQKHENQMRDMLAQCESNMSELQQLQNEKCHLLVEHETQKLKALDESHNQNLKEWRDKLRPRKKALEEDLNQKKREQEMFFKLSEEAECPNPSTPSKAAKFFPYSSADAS

[10] = molecular target: T2, Aurora kinase A (Homo sapiens) (UniProt O14965); experiment: Selectivity interaction (Kinase panel (DSF assay)) EUB0001559a STK6
T2 sequence (whole entry): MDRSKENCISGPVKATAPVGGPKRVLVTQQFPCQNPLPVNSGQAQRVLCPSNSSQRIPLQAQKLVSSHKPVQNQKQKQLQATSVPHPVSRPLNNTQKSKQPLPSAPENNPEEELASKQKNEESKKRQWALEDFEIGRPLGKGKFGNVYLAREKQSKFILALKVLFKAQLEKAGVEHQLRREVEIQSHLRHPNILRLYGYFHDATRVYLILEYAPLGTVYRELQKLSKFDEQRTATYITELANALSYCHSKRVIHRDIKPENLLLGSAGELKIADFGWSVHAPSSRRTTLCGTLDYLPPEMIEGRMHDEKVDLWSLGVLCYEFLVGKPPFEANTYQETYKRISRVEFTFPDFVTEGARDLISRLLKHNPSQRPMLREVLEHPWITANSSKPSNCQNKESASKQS

Misshapen-like kinase 1 = Misshapen-like kinase 1 (Homo sapiens, UniProt Q8N4C8); experiment: Selectivity interaction (KinomeScan (DiscoverX)) EUB0000595a MINK1; settings: at 10 µM
Sequence of Misshapen-like kinase 1 (Q8N4C8 whole entry, looked up): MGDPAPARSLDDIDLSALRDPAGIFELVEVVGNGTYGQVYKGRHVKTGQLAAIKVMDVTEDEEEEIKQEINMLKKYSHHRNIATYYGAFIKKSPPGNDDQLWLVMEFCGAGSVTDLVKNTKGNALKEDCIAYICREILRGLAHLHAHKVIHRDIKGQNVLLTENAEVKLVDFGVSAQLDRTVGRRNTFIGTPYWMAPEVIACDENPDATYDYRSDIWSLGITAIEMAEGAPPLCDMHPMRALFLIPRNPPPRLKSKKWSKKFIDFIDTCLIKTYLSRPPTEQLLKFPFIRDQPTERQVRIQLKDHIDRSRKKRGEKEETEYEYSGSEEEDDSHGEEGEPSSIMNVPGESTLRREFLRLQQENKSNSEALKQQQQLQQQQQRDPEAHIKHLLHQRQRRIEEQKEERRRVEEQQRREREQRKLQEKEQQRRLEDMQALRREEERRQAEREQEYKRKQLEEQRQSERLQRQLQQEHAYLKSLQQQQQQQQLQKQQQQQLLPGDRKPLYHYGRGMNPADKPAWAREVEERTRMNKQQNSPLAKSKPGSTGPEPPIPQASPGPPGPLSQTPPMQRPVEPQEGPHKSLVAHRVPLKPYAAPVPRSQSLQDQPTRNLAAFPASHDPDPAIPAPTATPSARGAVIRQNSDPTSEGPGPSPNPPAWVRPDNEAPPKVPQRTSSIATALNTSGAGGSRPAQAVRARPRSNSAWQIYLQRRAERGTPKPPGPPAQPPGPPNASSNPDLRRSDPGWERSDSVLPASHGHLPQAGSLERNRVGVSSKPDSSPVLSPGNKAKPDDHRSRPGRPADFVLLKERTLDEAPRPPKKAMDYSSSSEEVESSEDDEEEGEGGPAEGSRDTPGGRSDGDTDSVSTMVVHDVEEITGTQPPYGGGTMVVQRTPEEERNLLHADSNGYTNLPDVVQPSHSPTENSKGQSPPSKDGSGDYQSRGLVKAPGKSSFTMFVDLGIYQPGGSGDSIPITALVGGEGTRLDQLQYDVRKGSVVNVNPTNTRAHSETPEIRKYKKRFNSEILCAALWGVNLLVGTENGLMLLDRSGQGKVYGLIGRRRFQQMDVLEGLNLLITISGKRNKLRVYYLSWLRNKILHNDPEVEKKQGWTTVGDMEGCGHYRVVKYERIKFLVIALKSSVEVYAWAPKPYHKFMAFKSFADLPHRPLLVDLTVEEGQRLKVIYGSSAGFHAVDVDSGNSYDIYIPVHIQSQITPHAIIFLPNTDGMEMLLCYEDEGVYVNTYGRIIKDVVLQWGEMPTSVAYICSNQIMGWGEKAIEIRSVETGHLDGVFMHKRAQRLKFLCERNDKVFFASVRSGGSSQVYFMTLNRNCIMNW

Ephrin type-A receptor 4 [11] = molecular target: T3, Ephrin type-A receptor 4 (Homo sapiens, UniProt P54764); experiment: Selectivity interaction (KinomeScan (DiscoverX)) EUB0000655a EPHA4; settings: at 10 µM
T3 sequence (P54764 whole entry): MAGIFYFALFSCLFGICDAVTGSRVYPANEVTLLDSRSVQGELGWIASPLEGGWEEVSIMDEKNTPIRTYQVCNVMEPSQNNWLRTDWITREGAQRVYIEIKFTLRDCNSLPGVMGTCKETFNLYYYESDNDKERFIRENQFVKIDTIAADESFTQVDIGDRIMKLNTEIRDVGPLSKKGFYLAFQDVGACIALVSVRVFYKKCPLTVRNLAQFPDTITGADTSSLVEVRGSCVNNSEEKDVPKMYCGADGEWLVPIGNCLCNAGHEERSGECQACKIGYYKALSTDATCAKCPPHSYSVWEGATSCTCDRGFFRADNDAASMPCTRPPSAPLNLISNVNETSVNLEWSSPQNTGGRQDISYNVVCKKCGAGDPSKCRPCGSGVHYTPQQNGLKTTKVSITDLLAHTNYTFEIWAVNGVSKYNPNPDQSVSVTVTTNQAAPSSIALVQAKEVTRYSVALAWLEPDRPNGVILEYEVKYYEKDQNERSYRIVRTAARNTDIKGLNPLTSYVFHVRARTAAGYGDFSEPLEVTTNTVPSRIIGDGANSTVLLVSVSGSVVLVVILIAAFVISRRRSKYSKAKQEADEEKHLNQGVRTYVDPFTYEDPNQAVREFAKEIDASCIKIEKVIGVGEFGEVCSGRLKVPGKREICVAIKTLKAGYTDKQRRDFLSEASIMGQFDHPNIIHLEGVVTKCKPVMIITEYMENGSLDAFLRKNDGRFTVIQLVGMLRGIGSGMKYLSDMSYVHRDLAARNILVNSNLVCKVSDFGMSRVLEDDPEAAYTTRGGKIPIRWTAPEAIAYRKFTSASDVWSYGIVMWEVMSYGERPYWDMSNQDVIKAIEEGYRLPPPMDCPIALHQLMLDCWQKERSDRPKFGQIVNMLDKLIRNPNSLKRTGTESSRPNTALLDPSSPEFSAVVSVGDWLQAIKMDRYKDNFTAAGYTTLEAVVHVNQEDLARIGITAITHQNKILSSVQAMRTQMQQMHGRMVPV

[12] = molecular target: Dual specificity protein kinase CLK4 (Homo sapiens, UniProt Q9HAZ1); experiment: Selectivity interaction (KinomeScan (DiscoverX)) EUB0001079a CLK4; settings: at 1 µM
[13] = molecular target: Glycogen synthase kinase-3 alpha (Homo sapiens, UniProt P49840); experiment: Selectivity interaction (KinomeScan (DiscoverX)) EUB0001079a GSK3A; settings: at 1 µM
[14] = molecular target: Serine/threonine-protein kinase PLK1 (Homo sapiens, UniProt P53350); experiment: Selectivity interaction (KinomeScan (DiscoverX)) EUB0001079a PLK1; settings: at 1 µM
[15] = molecular target: Histone-lysine N-methyltransferase 2A (Homo sapiens) (UniProt Q03164); experiment: Selectivity interaction (Bromodomain panel (DSF asssay)) EUB0000270b MLL
Ephrin type-A receptor 4 [16] = molecular target: T3, Ephrin type-A receptor 4; experiment: Selectivity interaction (KinomeScan (DiscoverX)) EUB0000092b EPHA4; settings: at 10 µM
[17] = molecular target: T1, Serine/threonine-protein kinase ULK3 (Homo sapiens); experiment: Selectivity interaction (KinomeScan (DiscoverX)) EUB0000092b ULK3; settings: at 10 µM
[18] = molecular target: Cyclin-dependent kinase 5 (Homo sapiens, UniProt Q00535); experiment: Selectivity interaction (ActivX KiNativ screen (ex vivo kinase selectivity in human PBMCs)) EUB0001619a CDK5; assay type: cell-based; settings: PBMC, at 1 µM
Sequence of Cyclin-dependent kinase 5 (Q00535 whole entry, looked up, canonical isoform): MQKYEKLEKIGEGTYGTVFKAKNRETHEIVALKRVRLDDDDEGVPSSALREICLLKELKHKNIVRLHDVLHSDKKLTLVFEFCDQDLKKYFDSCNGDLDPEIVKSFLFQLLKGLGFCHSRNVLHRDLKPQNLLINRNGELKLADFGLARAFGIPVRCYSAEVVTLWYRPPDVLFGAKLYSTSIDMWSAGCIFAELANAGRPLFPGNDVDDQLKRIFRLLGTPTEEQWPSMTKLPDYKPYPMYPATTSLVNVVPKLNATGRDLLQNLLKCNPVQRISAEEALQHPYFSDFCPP

[19] = molecular target: Phosphatidylinositol 4,5-bisphosphate 3-kinase catalytic subunit gamma isoform (Homo sapiens) (UniProt P48736); experiment: Selectivity interaction (ActivX KiNativ screen (ex vivo kinase selectivity in human PBMCs)) EUB0001619a PIK3CG; assay type: cell-based; settings: PBMC, at 1 µM

Sequence of Tyrosine-protein kinase Fyn (Homo sapiens) (P06241 2-537 limits assumed): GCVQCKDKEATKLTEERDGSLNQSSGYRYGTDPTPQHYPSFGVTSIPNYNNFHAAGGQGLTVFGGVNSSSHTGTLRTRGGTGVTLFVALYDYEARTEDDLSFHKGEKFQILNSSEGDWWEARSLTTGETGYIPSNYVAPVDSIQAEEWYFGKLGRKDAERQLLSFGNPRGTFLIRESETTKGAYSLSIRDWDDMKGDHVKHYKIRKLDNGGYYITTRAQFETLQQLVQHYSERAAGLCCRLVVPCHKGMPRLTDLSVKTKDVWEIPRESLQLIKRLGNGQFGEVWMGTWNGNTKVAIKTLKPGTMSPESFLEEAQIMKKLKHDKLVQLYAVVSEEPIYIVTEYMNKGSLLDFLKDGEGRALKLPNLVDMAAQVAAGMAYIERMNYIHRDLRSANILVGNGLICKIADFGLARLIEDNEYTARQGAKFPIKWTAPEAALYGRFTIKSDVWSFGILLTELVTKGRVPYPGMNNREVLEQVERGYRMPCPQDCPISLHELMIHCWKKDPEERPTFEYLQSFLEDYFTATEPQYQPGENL

SMILES: O=C(NOC[C@H](O)CO)c1ccc(F)c(F)c1Nc1ccc(I)cc1F
- % of control [4]: 100%

SMILES: CCn1c(-c2nc3cc(C(=O)N4CCCC(N)C4)ccc3n2C)cc2ccccc21 (stereo not given)
- pXC50 [5]: < 4 M

SMILES: CN(C(=O)c1cnn2cccnc12)c1cc2c(cc1N1CCOCC1)C(=O)N(C[C@@H](F)C(C)(C)O)C2
- dTM [10]: -0.6 K

SMILES: COCC(=O)NC/C=C/c1ccc2ncnc(Nc3ccc(Oc4ccc(C)nc4)c(C)c3)c2c1 [CP-724714]
- % of control (Misshapen-like kinase 1): 77%

SMILES: CN(C)CCOc1ccc(-c2nc(-c3ccncc3)c(-c3ccc4c(c3)CC/C4=N\O)[nH]2)cc1
- % of control (Ephrin type-A receptor 4 [11]): 100%

SMILES: Nc1cnc(N2CCc3cc(S(=O)(=O)Nc4c(F)cc(Cl)cc4F)cc(N4CCCC4=O)c32)nc1 [TP-020n]
- % of control [12]: 89%
- % of control [13]: 100%
- % of control [14]: 100%

SMILES: CCC(=O)N1CCN(c2ccc(-n3c(=O)ccc4cnc5ccc(-c6cnc7ccccc7c6)cc5c43)cc2C(F)(F)F)CC1
- % of control (Ephrin type-A receptor 4 [16]): 90%
- % of control [17]: 100%

SMILES: N#Cc1cccc(-c2c[nH]c3ncnc(N4CCOCC4)c23)c1
- % of inhibition [18]: -9%
- % of inhibition [19]: -6%

Results, then the compound that gave them:

- % of inhibition [1]: -11.6%
- % of inhibition [2]: -42.4%
- % of control [3]: 18.1%
SMILES: Cn1cc(-n2cnc3c(NCc4nc5cc(Cl)c(Cl)cc5[nH]4)nc(N4CCOCC4)nc32)cn1

- % of inhibition [6]: 36.9%
- % of inhibition [7]: 9.1%
- % of inhibition [8]: -8.1%
SMILES: CC[C@@H]1[C@H](F)C(=O)N[C@@H]1COc1nccc2cc(C(N)=O)c(OC)cc12 [ZIMLOVISERTIB]

- dTM [9]: 2.3 K
SMILES: CN1CCN(C(=O)c2ccc3cc2OCCOCCNc2ccn4ncc-3c4n2)CC1

- dTM [15]: -1.04 K
SMILES: Cc1cc(CN)cc(C)c1-c1ncn(C)c1-c1cncn1C
